Reference: US6355799B1, “Substituted benzene compounds, process for their preparation, and herbicidal and defoliant compositions containing them” (ISK Americas Incorporated, priority 1997, dated 2002)

Experiments:
Format in all cases: in vivo
[1] = tested on: upland rice (Oryza sp., var. Tebonnet, RICE); assay: Pre-emerge test, crop safety; details: pre-emerge, 14 days after application, rating scale 0-100
Procedure, shortened: (§1)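 Compounds in acetone were track-sprayed at 187 l/ha, 15–1000 g ai/ha, onto sandy loam pots. Pre-emerge seeds were sown one day before spraying, with surface watering afterwards. Post-emerge plants were at the 2–3 leaf stage and sprayed with 0.25% v/v non-ionic surfactant. Injury was rated 0–100 at 14 days.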

[2] = tested on: field corn (Zea mays L., var. Dekalb 535, CORN); assay: Pre-emerge test, crop safety; details: pre-emerge, 14 days after application, rating scale 0-100
Procedure, shortened: as §1

[3] = tested on: redroot pigweed (Amaranthus retroflexus, AMARE); assay: Pre-emerge test, greenhouse herbicide activity screening; details: pre-emerge, 14 days after application, rating scale 0-100
Procedure, shortened: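 Herbicidal damage is scored 0 (none) to 100 (complete plant death) two weeks after a simulated field spray. Rates span 15–1000 g ai/ha, delivered in acetone at 187 l/ha. For post-emergence treatments, plants have 2–3 leaves and the spray carries 0.25% v/v non-ionic surfactant.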

[4] = tested on: barnyardgrass (Echinochloa crus-galli, ECHCG); assay: Post-emerge test, greenhouse herbicide activity screening; details: rating scale 0-100 (0 no damage, 100 complete death), 14 days after application
Procedure, shortened: (§2)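 Fourteen days after spraying, crop and weed injury was graded visually from 0, no effect, to 100, every plant dead. Test substances were dissolved in acetone and applied at 15–1000 g ai/ha with a flat-fan nozzle. Application was either pre-emergence, one day after sowing, or post-emergence at the 2–3 leaf stage.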

[5] = tested on: ivyleaf morningglory (Ipomoea hederacea, IPOHE); assay: as above; details: rating scale 0-100 (0 no damage, 100 complete death), 14 days after application
Procedure, shortened: as §2

[6] = tested on: large crabgrass (Digitaria sanguinalis, DIGSA); assay: as above; details: rating scale 0-100 (0 no damage, 100 complete death), 14 days after application
Procedure, shortened: as §2

[7] = tested on: velvetleaf (Abutilon theophrasti, ABUTH); assay: as above; details: rating scale 0-100 (0 no damage, 100 complete death), 14 days after application
Procedure, shortened: as §2

[8] = tested on: sicklepod (Cassia obtusifolia, CASOB); assay: as above; details: rating scale 0-100 (0 no damage, 100 complete death), 14 days after application
Procedure, shortened: as §2

[9] = tested on: green foxtail (Setaria viridis, SETVI); assay: as above; details: rating scale 0-100 (0 no damage, 100 complete death), 14 days after application
Procedure, shortened: as §2

[10] = tested on: lambsquarters (Chenopodium album, CHEAL); assay: as above; details: rating scale 0-100 (0 no damage, 100 complete death), 14 days after application
Procedure, shortened: as §2

[11] = tested on: redroot pigweed (Amaranthus retroflexus, AMARE); assay: as above; details: rating scale 0-100 (0 no damage, 100 complete death), 14 days after application
Procedure, shortened: as §2

[12] = tested on: johnsongrass (Sorghum halepense, SORHA); assay: as above; details: rating scale 0-100 (0 no damage, 100 complete death), 14 days after application
Procedure, shortened: as §2

[13] = tested on: barnyardgrass (Echinochloa crus-galli, ECHCG); assay: Pre-emerge test, greenhouse herbicide activity screening; details: pre-emerge, 14 days after application, rating scale 0-100
Procedure, shortened: as §1

[14] = tested on: ivyleaf morningglory (Ipomoea hederacea, IPOHE); assay: as above; details: pre-emerge, 14 days after application, rating scale 0-100
Procedure, shortened: as §1

[15] = tested on: large crabgrass (Digitaria sanguinalis, DIGSA); assay: as above; details: pre-emerge, 14 days after application, rating scale 0-100
Procedure, shortened: as §1

[16] = tested on: velvetleaf (Abutilon theophrasti, ABUTH); assay: as above; details: pre-emerge, 14 days after application, rating scale 0-100
Procedure, shortened: as §1

[17] = tested on: sicklepod (Cassia obtusifolia, CASOB); assay: as above; details: pre-emerge, 14 days after application, rating scale 0-100
Procedure, shortened: as §1

[18] = tested on: common ragweed (Ambrosia artemisizfolia L., AMBEL); assay: as above; details: pre-emerge, 14 days after application, rating scale 0-100
Procedure, shortened: as §1

[19] = tested on: green foxtail (Setaria viridis, SETVI); assay: as above; details: pre-emerge, 14 days after application, rating scale 0-100
Procedure, shortened: as §1

[20] = tested on: lambsquarters (Chenopodium album, CHEAL); assay: as above; details: pre-emerge, 14 days after application, rating scale 0-100
Procedure, shortened: as §1

[21] = tested on: johnsongrass (Sorghum halepense, SORHA); assay: as above; details: pre-emerge, 14 days after application, rating scale 0-100
Procedure, shortened: as §1

[22] = tested on: upland rice (Oryza sp., var. Tebonnet, RICE); assay: Post-emerge test, crop safety; details: rating scale 0-100 (0 no damage, 100 complete death), 14 days after application
Procedure, shortened: as §1

[23] = tested on: field corn (Zea mays L., var. Dekalb 535, CORN); assay: Post-emerge test, crop safety; details: rating scale 0-100 (0 no damage, 100 complete death), 14 days after application
Procedure, shortened: as §1

CCOC(=O)C(Cl)Cc1c(C)c(Cl)cc(F)c1-n1c(=O)cc(C(F)(F)F)n(C)c1=O (stereo not shown) [14-54]
0: phytotoxicity rating RICE ([1]; 63 g ai/ha) | phytotoxicity rating CORN ([2]; 63 g ai/ha) | phytotoxicity rating CORN ([2]; 250 g ai/ha) | Post-emerge Herbicidal Activity, phytotoxicity rating DIGSA ([6]; Rate 63 g ai/ha) | Post-emerge Herbicidal Activity, phytotoxicity rating CASOB ([8]; Rate 63 g ai/ha) | Post-emerge Herbicidal Activity, phytotoxicity rating SORHA ([12]; Rate 63 g ai/ha) | Post-emerge Herbicidal Activity, phytotoxicity rating SORHA ([12]; Rate 250 g ai/ha) | phytotoxicity rating ECHCG ([13]; 63 g ai/ha) | phytotoxicity rating ECHCG ([13]; 250 g ai/ha) | phytotoxicity rating IPOHE ([14]; 63 g ai/ha) | phytotoxicity rating DIGSA ([15]; 63 g ai/ha) | phytotoxicity rating ABUTH ([16]; 63 g ai/ha) | phytotoxicity rating CASOB ([17]; 63 g ai/ha) | phytotoxicity rating AMBEL ([18]; 63 g ai/ha) | phytotoxicity rating AMBEL ([18]; 250 g ai/ha) | phytotoxicity rating SORHA ([21]; 63 g ai/ha)
5: Post-emerge phytotoxicity rating CORN (crop damage) ([23]; Rate 63 g ai/ha)
85: phytotoxicity rating AMARE ([3]; 250 g ai/ha)
40: Post-emerge Herbicidal Activity, phytotoxicity rating AMARE ([11]; Rate 63 g ai/ha) | phytotoxicity rating IPOHE ([14]; 250 g ai/ha)
30: Post-emerge Herbicidal Activity, phytotoxicity rating ECHCG ([4]; Rate 63 g ai/ha) | Post-emerge Herbicidal Activity, phytotoxicity rating ECHCG ([4]; Rate 250 g ai/ha) | Post-emerge Herbicidal Activity, phytotoxicity rating IPOHE ([5]; Rate 63 g ai/ha) | Post-emerge Herbicidal Activity, phytotoxicity rating CASOB ([8]; Rate 250 g ai/ha) | phytotoxicity rating DIGSA ([15]; 250 g ai/ha) | phytotoxicity rating SORHA ([21]; 250 g ai/ha)
100: phytotoxicity rating CHEAL ([20]; 250 g ai/ha)
70: phytotoxicity rating ABUTH ([16]; 250 g ai/ha)
20: phytotoxicity rating AMARE ([3]; 63 g ai/ha) | Post-emerge Herbicidal Activity, phytotoxicity rating CHEAL ([10]; Rate 63 g ai/ha) | phytotoxicity rating SETVI ([19]; 63 g ai/ha)
15: phytotoxicity rating RICE ([1]; 250 g ai/ha) | Post-emerge phytotoxicity rating CORN (crop damage) ([23]; Rate 250 g ai/ha)
80: Post-emerge Herbicidal Activity, phytotoxicity rating IPOHE ([5]; Rate 250 g ai/ha) | Post-emerge Herbicidal Activity, phytotoxicity rating ABUTH ([7]; Rate 250 g ai/ha) | phytotoxicity rating SETVI ([19]; 250 g ai/ha)
50: Post-emerge Herbicidal Activity, phytotoxicity rating AMARE ([11]; Rate 250 g ai/ha)
60: Post-emerge Herbicidal Activity, phytotoxicity rating ABUTH ([7]; Rate 63 g ai/ha) | Post-emerge Herbicidal Activity, phytotoxicity rating CHEAL ([10]; Rate 250 g ai/ha)
10: Post-emerge Herbicidal Activity, phytotoxicity rating DIGSA ([6]; Rate 250 g ai/ha) | Post-emerge Herbicidal Activity, phytotoxicity rating SETVI ([9]; Rate 63 g ai/ha) | Post-emerge Herbicidal Activity, phytotoxicity rating SETVI ([9]; Rate 250 g ai/ha) | phytotoxicity rating CASOB ([17]; 250 g ai/ha) | phytotoxicity rating CHEAL ([20]; 63 g ai/ha) | Post-emerge phytotoxicity rating RICE (crop damage) ([22]; Rate 63 g ai/ha) | Post-emerge phytotoxicity rating RICE (crop damage) ([22]; Rate 250 g ai/ha)
